Source: ChEMBL document CHEMBL1201862, “PubChem BioAssay data set” (2004)
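Tested at 5 concentrations; 48 h exposure; 96-well plates; endpoints linearly interpolated, else capped at highest concentration. At the GI50, growth is halved.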 Active and inactive are the calls of the source. No stated cut-off is given here; in the data, active = GI50 up to about 1.1 µM and inactive = higher.

Tests used:
Test in all cases: NCI tumour cell line growth inhibition, 48 h
786-0 = tested on: 786-0
A498 = tested on: A498
ACHN = tested on: ACHN
CCRF-CEM = tested on: CCRF-CEM
COLO 205 = tested on: COLO 205
DU-145 = tested on: DU-145
HCT-15 = tested on: HCT-15
HL-60 = tested on: HL-60
K562 = tested on: K562
LOX IMVI = tested on: LOX IMVI
NCI-H460 = tested on: NCI-H460
OVCAR-3 = tested on: OVCAR-3
PC-3 = tested on: PC-3
RPMI-8226 = tested on: RPMI-8226
SK-MEL-28 = tested on: SK-MEL-28
SK-MEL-2 = tested on: SK-MEL-2
SNB-19 = tested on: SNB-19
SNB-75 = tested on: SNB-75
T47D = tested on: T47D
UACC-62 = tested on: UACC-62

Row | SMILES | GI50 (786-0) | GI50 (A498) | GI50 (ACHN) | GI50 (CCRF-CEM) | GI50 (COLO 205) | GI50 (DU-145) | GI50 (HCT-15) [µM] | GI50 (HL-60) | GI50 (K562) | GI50 (LOX IMVI) | GI50 (NCI-H460) | GI50 (OVCAR-3) | GI50 (PC-3) | GI50 (RPMI-8226) | GI50 (SK-MEL-28) | GI50 (SK-MEL-2) | GI50 (SNB-19) | GI50 (SNB-75) | GI50 (T47D) | GI50 (UACC-62)
1 | OCCCNCc1ccccn1 | > 100 µM (inactive) | > 100 µM (inactive) | > 100 µM (inactive) | > 100 µM (inactive) | > 100 µM (inactive) | > 100 µM (inactive) | > 100 | 68.1 µM (inactive) | > 100 µM (inactive) | > 100 µM (inactive) | > 100 µM (inactive) | > 100 µM (inactive) | > 100 µM (inactive) | > 100 µM (inactive) | > 100 µM (inactive) | > 100 µM (inactive) | > 100 µM (inactive) | > 100 µM (inactive) | > 100 µM (inactive) | > 100 µM (inactive)
2 | CCCC(CC)c1cc(O)c(O)cc1C(CC)CCC (stereo not given) | > 10 µM (inactive) | > 10 µM (inactive) | > 10 µM (inactive) | > 10 µM (inactive) | > 10 µM (inactive) | > 10 µM (inactive) | > 10 | > 10 µM (inactive) | > 10 µM (inactive) | > 10 µM (inactive) | > 10 µM (inactive) | > 10 µM (inactive) | > 10 µM (inactive) | > 10 µM (inactive) | > 10 µM (inactive) | > 10 µM (inactive) | > 10 µM (inactive) | > 10 µM (inactive) | > 10 µM (inactive) | > 10 µM (inactive)
3 | COC1/C=C/C(C)C(C(C)C(OC)C(C)CCC(=O)C(C)C(CC(=O)O)OC)OC(=O)/C=C/C=C(\C)CC(OC)C(OC)C2=CC(=O)O[C@@H](C(C)C(OC)CC(OC)/C=C/C(C)C(O)C1)[C@H]2O (stereo not given in full) | 0.0223 µM (active) | 0.0815 µM (active) | 0.0473 µM (active) | 0.0484 µM (active) | 0.0399 µM (active) | 0.053 µM (active) | 0.0611 | 0.0237 µM (active) | 0.0564 µM (active) | 0.0188 µM (active) | 0.0311 µM (active) | 0.188 µM (active) | 0.0382 µM (active) | 0.0959 µM (active) | 0.0212 µM (active) | 0.198 µM (active) | 0.217 µM (active) | 0.0311 µM (active) | 0.135 µM (active) | 0.0479 µM (active)
4 | COC(=O)CCCCC/C(=C\C(=O)C(Cl)(Cl)Cl)OC | 24.9 µM (inactive) | 40.8 µM (inactive) | 39.7 µM (inactive) | 15.4 µM (inactive) | 26.5 µM (inactive) | 25.5 µM (inactive) | 24.2 | 22.3 µM (inactive) | 26.8 µM (inactive) | 20.9 µM (inactive) | 28.3 µM (inactive) | 26.6 µM (inactive) | 27.8 µM (inactive) | 20.4 µM (inactive) | 32.9 µM (inactive) | 22.2 µM (inactive) | 48.2 µM (inactive) | 21.4 µM (inactive) | 28.5 µM (inactive) | 36 µM (inactive)
5 | COc1ccc(C=O)cc1OS(=O)(=O)C(F)(F)C(F)(F)C(F)(F)C(F)(F)F | 31.6 µM (inactive) | 3.72 µM (inactive) | 44.5 µM (inactive) | 14.8 µM (inactive) | 24.5 µM (inactive) | > 68.2 µM (inactive) | 26.9 | 8.75 µM (inactive) | 3.52 µM (inactive) | 15.2 µM (inactive) | 27.2 µM (inactive) | 27 µM (inactive) | 32.3 µM (inactive) | 21.8 µM (inactive) | 24.4 µM (inactive) | 17.1 µM (inactive) | 42.1 µM (inactive) | 31.2 µM (inactive) | 41.7 µM (inactive) | 21.4 µM (inactive)
6 | Oc1ccc(-c2nc3ccccc3s2)cc1 | 27.1 µM (inactive) | 47.4 µM (inactive) | 45.8 µM (inactive) | 26.2 µM (inactive) | 45.1 µM (inactive) | 33.1 µM (inactive) | 36 | 30.3 µM (inactive) | 29 µM (inactive) | 21.4 µM (inactive) | 38.1 µM (inactive) | 34.5 µM (inactive) | 32.1 µM (inactive) | 27.1 µM (inactive) | 53.3 µM (inactive) | 20.4 µM (inactive) | 55.1 µM (inactive) | 37.4 µM (inactive) | 21.5 µM (inactive) | 32.4 µM (inactive)
7 | CCOC(=O)c1cc(C2=CCNC2=O)c(-c2cc(C)no2)[nH]1 | 40 µM (inactive) | > 100 µM (inactive) | 52.1 µM (inactive) | 34 µM (inactive) | 54.8 µM (inactive) | > 100 µM (inactive) | 92.9 | 22.3 µM (inactive) | 34.8 µM (inactive) | 86.5 µM (inactive) | 63.4 µM (inactive) | 45.6 µM (inactive) | 55.6 µM (inactive) | 36.7 µM (inactive) | 92.5 µM (inactive) | > 100 µM (inactive) | > 100 µM (inactive) | 34 µM (inactive) | 30.8 µM (inactive) | 39.1 µM (inactive)
